This note sets out measurements from patent US5340815A, “2-substituted-4,6-di-tertiary-butyl-5-hydroxy-1,3-pyrimidines useful as antiinflammatory agents” (Warner-Lambert Company, priority 1993, dated 1994).

For one assay, the system named is 5-Lipoxygenase. The assay can be described thus: ARBL whole cell 5-lipoxygenase assay (LTB4 formation, RBL-1 cells). The class given is cell-based, rat. To be noted: 10 μM. The method, then: (§1) ARBL/ARBC Whole Cell 5-Lipoxygenase and Cyclooxygenase Assays The rat basophilic leukemia cell line (RBL-1) was obtained from the American Type Culture Collection (Rockville, Md.). Radioimmunoassay (RIA) kits of LTB4 and PGF2α were obtained from Amersham (Arlington Heights, Ill.) and Seragen (Boston, Mass.), respectively. All tissue culture media were obtained from GIBCO (Grand Island, N.Y.). RBL-1 cells are grown in suspension culture in Eagle's minimum essential medium supplemented with 12% fetal bovine serum at 37° C. in an incubator supplied with air-5% carbon dioxide. Cells are harvested by centrifugation. They are washed with cold phosphate buffered saline pH 7.4 (PBS; NaCl, 7.1 g; Na2 HPO4, 1.15 g; KH2 PO4, 0.2 g; and KCl, 0.2 g/l). Cells are finally suspended in PBS containing 1.0 mM calcium at a density of 2×10^6 cells/mi. Cells are incubated with and without test agent (in DMSO) (1% DMSO is without effect on arachidonic acid metabolism) for ten minutes at room temperature. Calcium ionophore A23187 (5 μM) is added and cells are incubated for 7 minutes at 37° C. The reaction is stopped by chilling the tubes on ice for 10 minutes. Cells are separated by centrifugation and the supernatant is stored at -20° Aliquots (100 μL) are analyzed for LTB4 and PGF2α using radioimmunoassay kits as provided by the supplier. […]

For the next assay, the system named is Cyclooxygenase. Briefly: ARBC whole cell cyclooxygenase assay (PGF2α formation, RBL-1 cells). In kind it is cell-based, rat. The following applies: 10 μM. The method, then:
as §1

The test system of assay [1] is Carrageenan-Induced Rat Foot Paw Edema. The assay can be described thus: Carrageenan-induced rat foot paw edema-2 (CFE-2) assay. The following applies: 30 mg/kg, methanesulfonate salt, dosed one hour before carrageenan; edema at five hours. In kind it is in vivo. The method, then: Carrageenan-Induced Rat Foot Paw Edema-2 (CFE-2) Assay: Protocol
Carrageenan solution (1% w/v) is prepared by dissolving 100 mg carrageenan (Marine Colloidal Div., Springfield, N.J.) in 10 mL of sterile saline (0.9%) solution (Travenol). The solution is vortexed for 30 to 45 minutes. Animals are dosed with compound one hour before carrageenan challenge. Foot paw edema is induced by injecting 0.10 ml of the 1% carrageenan subcutaneously into the plantar portion of the right hind paw of each rat under light anesthesia. Initial foot paw volume is measured immediately following carrageenan challenge using mercury plethysmography (Buxco Electronics). Edema is measured five hours after carrageenan. The difference between the five-hour and the initial paw volume is expressed as delta edema. The delta edema for each test group of animals is used to calculate the percent inhibition of edema achieved by-the compound at the test dose compared with the vehicle control group. The ID40 (the dose at which swelling is inhibited by 40%) is calculated by probit analysis for the dose at which 40 percent inhibition occurs.
(Carrageenan injected into the paw causes an acute inflammation.)

Regarding `CC(C)(C)c1nc(/C=C/c2cccnc2)nc(C(C)(C)C)c1O` [Example 1, [E]-4,6-Bis(1,1-dimethylethyl)-2-[[2-(3-pyridinyl)]-ethenyl]-5-pyrimidinol], the “ARBL, % inhibition (LTB4 formation)” value with 5-Lipoxygenase was found to be 100%. In addition, the “ARBC, % inhibition (PGF2α formation)” value in the assay on Cyclooxygenase is listed as 85%. The “% Inhibition of Edema” value in assay [1] is recorded as 45%.
`Cc1cc(C=Cc2nc(C(C)(C)C)c(O)c(C(C)(C)C)n2)sn1` [Example 3]: in the assay on 5-Lipoxygenase, the “ARBL, inhibition class (LTB4 formation)” value is “N* (<40% inhibition at 10 μM)”. Moreover, the “ARBC, % inhibition (PGF2α formation)” value with Cyclooxygenase came to 60%.
